From ChEMBL document CHEMBL1671854, “ramR mutations involved in efflux-mediated multidrug resistance in Salmonella enterica serovar Typhimurium” (2008)
Converted amounts (≈) assume the structure as drawn.

Experiments:
Assay type in all cases: functional, Salmonella enterica subsp. enterica serovar Typhimurium
Salmonella typhimurium [1] = assay: Antimicrobial activity against soxR::kan-deficient Salmonella enterica serovar Typhimurium S/921495 by agar doubling dilution method
Salmonella typhimurium [2] = assay: Antimicrobial activity against marR::kan-deficient Salmonella enterica serovar Typhimurium S/921495 by agar doubling dilution method
Salmonella typhimurium [3] = assay: Antimicrobial activity against ramR-deficient Salmonella enterica serovar Typhimurium S/921495 by agar doubling dilution method
Salmonella typhimurium [4] = assay: Antimicrobial activity against marR-deficient Salmonella enterica serovar Typhimurium S/921495 by agar doubling dilution method
Salmonella typhimurium [5] = assay: Antimicrobial activity against soxS::kan-deficient Salmonella enterica serovar Typhimurium S/921495 by agar doubling dilution method
Salmonella typhimurium [6] = assay: Antimicrobial activity against multidrug-resistant Salmonella enterica serovar Typhimurium 902SA92 harboring plasmid encoded RamR gene, GyrA S83A and D87N, GyrB S464F and ParC S80I mutant genes by agar doubling dilution method
Salmonella typhimurium [7] = assay: Antimicrobial activity against ramA::kan-deficient Salmonella enterica serovar Typhimurium BN18/21 by agar doubling dilution method
Salmonella typhimurium [8] = assay: Antimicrobial activity against Salmonella enterica serovar Typhimurium BN18/21 by agar doubling dilution method
Salmonella typhimurium [9] = assay: Antimicrobial activity against ramA::kan-deficient Salmonella enterica serovar Typhimurium 543SA98 harboring GyrA S83Y mutant gene by agar doubling dilution method
Salmonella typhimurium [10] = assay: Antimicrobial activity against ramA::kan-deficient Salmonella enterica serovar Typhimurium BN18/41 harboring plasmid encoded RamR gene, GyrA G81C,acrR mutant genes by agar doubling dilution method
Salmonella typhimurium [11] = assay: Antimicrobial activity against multidrug-resistant Salmonella enterica serovar Typhimurium 543SA98 harboring GyrA […] mutant gene by agar doubling dilution method
Salmonella typhimurium [12] = assay: Antimicrobial activity against multidrug-resistant Salmonella enterica serovar Typhimurium 102SA00 harboring GyrA S83A and D87N, GyrB S464F and ParC S80I mutant genes by agar doubling dilution method
Salmonella typhimurium [13] = assay: Antimicrobial activity against Salmonella enterica serovar Typhimurium S/921495 harboring plasmid encoded RamR gene by agar doubling dilution method
Salmonella typhimurium [14] = assay: Antimicrobial activity against Salmonella enterica serovar Typhimurium BN18/71 harboring plasmid encoded RamR gene, GyrA G81C,acrR mutant genes by agar doubling dilution method
Salmonella typhimurium [15] = assay: Antimicrobial activity against ramA::kan-deficient Salmonella enterica serovar Typhimurium S/921495 by agar doubling dilution method
Salmonella typhimurium [16] = assay: Antimicrobial activity against multidrug-resistant Salmonella enterica serovar Typhimurium BN9945 by agar doubling dilution method
Salmonella typhimurium [17] = assay: Antimicrobial activity against Salmonella enterica serovar Typhimurium BN18/71 harboring GyrA G81C, acrR mutant genes by agar doubling dilution method
Salmonella typhimurium [18] = assay: Antimicrobial activity against ramA::kan-deficient Salmonella enterica serovar Typhimurium 102SA00 harboring GyrA S83A and D87N, GyrB S464F and ParC S80I mutant genes by agar doubling dilution method
Salmonella typhimurium [19] = assay: Antimicrobial activity against Salmonella enterica serovar Typhimurium S/921495 by agar doubling dilution method
Salmonella typhimurium [20] = assay: Antimicrobial activity against Salmonella enterica serovar Typhimurium BN18 by agar doubling dilution method
Salmonella typhimurium [21] = assay: Antimicrobial activity against ramA::kan-deficient Salmonella enterica serovar Typhimurium BN9945 by agar doubling dilution method
Salmonella typhimurium [22] = assay: Antimicrobial activity against Salmonella enterica serovar Typhimurium BN18/41 harboring plasmid encoded RamR gene, GyrA G81C,acrR mutant genes by agar doubling dilution method
Salmonella typhimurium [23] = assay: Antimicrobial activity against multidrug-resistant Salmonella enterica serovar Typhimurium 902SA92 harboring GyrA S83A and D87N, GyrB S464F and ParC S80I mutant genes by agar doubling dilution method
Salmonella typhimurium [24] = assay: Antimicrobial activity against multidrug-resistant Salmonella enterica serovar Typhimurium 543SA98 harboring plasmid encoded RamR gene, GyrA S83Y mutant gene by agar doubling dilution method
Salmonella typhimurium [25] = assay: Antimicrobial activity against Salmonella enterica serovar Typhimurium BN18 harboring plasmid encoded RamR gene by agar doubling dilution method
Salmonella typhimurium [26] = assay: Antimicrobial activity against ramA::kan-deficient Salmonella enterica serovar Typhimurium BN18/71 harboring plasmid encoded RamR gene, GyrA G81C,acrR mutant genes by agar doubling dilution method
Salmonella typhimurium [27] = assay: Antimicrobial activity against multidrug-resistant Salmonella enterica serovar Typhimurium BN9181 harboring plasmid encoded RamR gene by agar doubling dilution method
Salmonella typhimurium [28] = assay: Antimicrobial activity against multidrug-resistant Salmonella enterica serovar Typhimurium BN10055 harboring GyrA S83Y mutant gene by agar doubling dilution method
Salmonella typhimurium [29] = assay: Antimicrobial activity against multidrug-resistant Salmonella enterica serovar Typhimurium BN9181 by agar doubling dilution method
Salmonella typhimurium [30] = assay: Antimicrobial activity against multidrug-resistant Salmonella enterica serovar Typhimurium BN9945 harboring plasmid encoded RamR gene by agar doubling dilution method
Salmonella typhimurium [31] = assay: Antimicrobial activity against multidrug-resistant Salmonella enterica serovar Typhimurium BN10055 harboring plasmid encoded RamR gene, GyrA S83Y mutant gene by agar doubling dilution method
Salmonella typhimurium [32] = assay: Antimicrobial activity against ramA::kan-deficient Salmonella enterica serovar Typhimurium 902SA92 harboring GyrA S83A and D87N, GyrB S464F and ParC S80I mutant genes by agar doubling dilution method
Salmonella typhimurium [33] = assay: Antimicrobial activity against Salmonella enterica serovar Typhimurium BN18/41 harboring GyrA G81C,acrR mutant genes by agar doubling dilution method
Salmonella typhimurium [34] = assay: Antimicrobial activity against ramA::kan-deficient Salmonella enterica serovar Typhimurium BN9181 by agar doubling dilution method
Salmonella typhimurium [35] = assay: Antimicrobial activity against ramR-deficient Salmonella enterica serovar Typhimurium S/921495 harboring plasmid encoded RamR gene by agar doubling dilution method
Salmonella typhimurium [36] = assay: Antimicrobial activity against ramR::kan-deficient Salmonella enterica serovar Typhimurium S/921495 by agar doubling dilution method
Salmonella typhimurium [37] = assay: Antimicrobial activity against marA::kan-deficient Salmonella enterica serovar Typhimurium S/921495 by agar doubling dilution method
Salmonella typhimurium [38] = assay: Antimicrobial activity against multidrug-resistant Salmonella enterica serovar Typhimurium 102SA00 harboring plasmid encoded RamR gene, GyrA S83A and D87N, GyrB S464F and ParC S80I mutant genes by agar doubling dilution method
Salmonella typhimurium [39] = assay: Antimicrobial activity against Salmonella enterica serovar Typhimurium BN18/21 harboring plasmid encoded RamR gene by agar doubling dilution method
Salmonella typhimurium [40] = assay: Antimicrobial activity against ramA::kan-deficient Salmonella enterica serovar Typhimurium BN18 by agar doubling dilution method
Salmonella typhimurium [41] = assay: Antimicrobial activity against ramA::kan-deficient Salmonella enterica serovar Typhimurium BN10055 harboring GyrA S83Y mutant gene by agar doubling dilution method

SMILES: CCn1cc(C(=O)O)c(=O)c2ccc(C)nc21 [NALIDIXIC ACID]
- MIC (Salmonella typhimurium [1]): 2 µg/mL (≈ 8.61 µM)
- MIC (Salmonella typhimurium [2]): 2 µg/mL (≈ 8.61 µM)
- MIC (Salmonella typhimurium [3]): 16 µg/mL (≈ 68.9 µM)
- MIC (Salmonella typhimurium [4]): 2 µg/mL (≈ 8.61 µM)
- MIC (Salmonella typhimurium [5]): 4 µg/mL (≈ 17.2 µM)
- MIC (Salmonella typhimurium [6]): 4100 µg/mL (≈ 17600 µM)
- MIC (Salmonella typhimurium [7]): 8 µg/mL (≈ 34.4 µM)
- MIC (Salmonella typhimurium [8]): 64 µg/mL (≈ 276 µM)
- MIC (Salmonella typhimurium [9]): 512 µg/mL (≈ 2200 µM)
- MIC (Salmonella typhimurium [10]): 4100 µg/mL (≈ 17600 µM)
- MIC (Salmonella typhimurium [11]): 1020 µg/mL (≈ 4410 µM)
- MIC (Salmonella typhimurium [12]): > 4100 µg/mL
- MIC (Salmonella typhimurium [13]): 4 µg/mL (≈ 17.2 µM)
- MIC (Salmonella typhimurium [14]): 4100 µg/mL (≈ 17600 µM)
- MIC (Salmonella typhimurium [15]): 4 µg/mL (≈ 17.2 µM)
- MIC (Salmonella typhimurium [16]): 1020 µg/mL (≈ 4410 µM)
- MIC (Salmonella typhimurium [17]): > 4100 µg/mL
- MIC (Salmonella typhimurium [18]): 4100 µg/mL (≈ 17600 µM)
- MIC (Salmonella typhimurium [19]): 4 µg/mL (≈ 17.2 µM)
- MIC (Salmonella typhimurium [20]): 4 µg/mL (≈ 17.2 µM)
- MIC (Salmonella typhimurium [21]): 512 µg/mL (≈ 2200 µM)
- MIC (Salmonella typhimurium [22]): 4100 µg/mL (≈ 17600 µM)
- MIC (Salmonella typhimurium [23]): > 4100 µg/mL
- MIC (Salmonella typhimurium [24]): 512 µg/mL (≈ 2200 µM)
- MIC (Salmonella typhimurium [25]): 4 µg/mL (≈ 17.2 µM)
- MIC (Salmonella typhimurium [26]): 4100 µg/mL (≈ 17600 µM)
- MIC (Salmonella typhimurium [27]): 4 µg/mL (≈ 17.2 µM)
- MIC (Salmonella typhimurium [28]): > 4100 µg/mL
- MIC (Salmonella typhimurium [29]): 4 µg/mL (≈ 17.2 µM)
- MIC (Salmonella typhimurium [30]): 512 µg/mL (≈ 2200 µM)
- MIC (Salmonella typhimurium [31]): > 4100 µg/mL
- MIC (Salmonella typhimurium [32]): 4100 µg/mL (≈ 17600 µM)
- MIC (Salmonella typhimurium [33]): > 4100 µg/mL
- MIC (Salmonella typhimurium [34]): 4 µg/mL (≈ 17.2 µM)
- MIC (Salmonella typhimurium [35]): 4 µg/mL (≈ 17.2 µM)
- MIC (Salmonella typhimurium [36]): 16 µg/mL (≈ 68.9 µM)
- MIC (Salmonella typhimurium [37]): 4 µg/mL (≈ 17.2 µM)
- MIC (Salmonella typhimurium [38]): 4100 µg/mL (≈ 17600 µM)
- MIC (Salmonella typhimurium [39]): 8 µg/mL (≈ 34.4 µM)
- MIC (Salmonella typhimurium [40]): 4 µg/mL (≈ 17.2 µM)
- MIC (Salmonella typhimurium [41]): 512 µg/mL (≈ 2200 µM)

SMILES: CN(C)[C@@H]1C(O)=C(C(N)=O)C(=O)[C@@]2(O)C(O)=C3C(=O)c4c(O)cccc4[C@@](C)(O)[C@H]3C[C@@H]12 [TETRACYCLINE]
- MIC (Salmonella typhimurium [1]): 1 µg/mL (≈ 2.25 µM)
- MIC (Salmonella typhimurium [2]): 1 µg/mL (≈ 2.25 µM)
- MIC (Salmonella typhimurium [3]): 4 µg/mL (≈ 9 µM)
- MIC (Salmonella typhimurium [4]): 1 µg/mL (≈ 2.25 µM)
- MIC (Salmonella typhimurium [5]): 1 µg/mL (≈ 2.25 µM)
- MIC (Salmonella typhimurium [6]): 256 µg/mL (≈ 576 µM)
- MIC (Salmonella typhimurium [7]): 1 µg/mL (≈ 2.25 µM)
- MIC (Salmonella typhimurium [8]): 4 µg/mL (≈ 9 µM)
- MIC (Salmonella typhimurium [9]): 32 µg/mL (≈ 72 µM)
- MIC (Salmonella typhimurium [10]): 2 µg/mL (≈ 4.5 µM)
- MIC (Salmonella typhimurium [11]): 128 µg/mL (≈ 288 µM)
- MIC (Salmonella typhimurium [12]): 256 µg/mL (≈ 576 µM)
- MIC (Salmonella typhimurium [13]): 1 µg/mL (≈ 2.25 µM)
- MIC (Salmonella typhimurium [14]): 2 µg/mL (≈ 4.5 µM)
- MIC (Salmonella typhimurium [15]): 1 µg/mL (≈ 2.25 µM)
- MIC (Salmonella typhimurium [16]): 128 µg/mL (≈ 288 µM)
- MIC (Salmonella typhimurium [17]): 16 µg/mL (≈ 36 µM)
- MIC (Salmonella typhimurium [18]): 256 µg/mL (≈ 576 µM)
- MIC (Salmonella typhimurium [19]): 1 µg/mL (≈ 2.25 µM)
- MIC (Salmonella typhimurium [20]): 1 µg/mL (≈ 2.25 µM)
- MIC (Salmonella typhimurium [21]): 32 µg/mL (≈ 72 µM)
- MIC (Salmonella typhimurium [22]): 2 µg/mL (≈ 4.5 µM)
- MIC (Salmonella typhimurium [23]): 256 µg/mL (≈ 576 µM)
- MIC (Salmonella typhimurium [24]): 32 µg/mL (≈ 72 µM)
- MIC (Salmonella typhimurium [25]): 1 µg/mL (≈ 2.25 µM)
- MIC (Salmonella typhimurium [26]): 2 µg/mL (≈ 4.5 µM)
- MIC (Salmonella typhimurium [27]): 32 µg/mL (≈ 72 µM)
- MIC (Salmonella typhimurium [28]): 256 µg/mL (≈ 576 µM)
- MIC (Salmonella typhimurium [29]): 32 µg/mL (≈ 72 µM)
- MIC (Salmonella typhimurium [30]): 32 µg/mL (≈ 72 µM)
- MIC (Salmonella typhimurium [31]): 256 µg/mL (≈ 576 µM)
- MIC (Salmonella typhimurium [32]): 256 µg/mL (≈ 576 µM)
- MIC (Salmonella typhimurium [33]): 8 µg/mL (≈ 18 µM)
- MIC (Salmonella typhimurium [34]): 32 µg/mL (≈ 72 µM)
- MIC (Salmonella typhimurium [35]): 1 µg/mL (≈ 2.25 µM)
- MIC (Salmonella typhimurium [36]): 4 µg/mL (≈ 9 µM)
- MIC (Salmonella typhimurium [37]): 1 µg/mL (≈ 2.25 µM)
- MIC (Salmonella typhimurium [38]): 256 µg/mL (≈ 576 µM)
- MIC (Salmonella typhimurium [39]): 1 µg/mL (≈ 2.25 µM)
- MIC (Salmonella typhimurium [40]): 1 µg/mL (≈ 2.25 µM)
- MIC (Salmonella typhimurium [41]): 64 µg/mL (≈ 144 µM)
